Source: US9051351B2, “Hepatocyte growth factor mimics as therapeutic agents” (Washington State University, priority 2011, dated 2015)
“Also recorded” adds a separate entry of the source. Where a SMILES comes first, the peptide text is derived from it. [ ]: non-standard residue; d: D form. The star is where a group is joined. Hexanoyl = CCCCCC(=O)*; Ahx = NCCCCCC(=O)O

What was measured:
human HGF = target: T1, human HGF (Homo sapiens, UniProt P14210); test: HGF dimerization (PAGE, silver staining); assay type: biochemical; details: 30 minutes, heparin
T1 construct: purchased R&D Systems (Minneapolis, Minn.)
Procedure: HGF dimerization was assessed using PAGE followed by silver staining (Kawas et al., 2011). Human HGF at a concentration of 0.08 ng/μl with or without 6-AH analogs was incubated with heparin at a final concentration of 5 μg/ml. Loading buffer was then added to each sample and the mixture separated by native PAGE using gradient Criterion XT precast gels (4-12% Bis-Tris; Biorad Laboratories, Hercules, Calif.). Next the gel was silver stained for the detection of the HGF monomers and dimers. Bands were quantitated from digital images using a UVP phosphoimager (Upland, Calif.).

CA1 hippocampal neurons = test: Spinogenesis in organotypic hippocampal slice cultures; assay type: cell-based, rat; details: 10^−12 M Nle1-AngIV or Dihexa, 10 ng/ml HGF; 2 days
Procedure: Hippocampi from P4 Sprague Dawley rats were cultured as previously described (Wayman, hnpey et al. 2006). Briefly, 400 μm slices were cultured on (Milipore, Billerica, Mass.) for 3 days after which they were biolistically transfected with tomato fluorescent protein (TFP) using a Helios Gen Gun (BioRad, Hercules, Calif.), according to the manufacturer's protocol, to visualize dendritic arbors. Following a 24 hour recovery period slices were stimulated with vehicle (H2O), 1 pM Nle1-AngIV or Dihexa for 2 days. Slices were fixed and mounted. Hippocampal CA1 neuronal processes were imaged and measured as described above.
Hippocampi from P4 Sprague Dawley rats were cultured as previously described (Wayman, Impey et al. 2006). Briefly, 400 μm slices were cultured on (Milipore, Billerica, Mass.) for 3 days after which they were biolistically transfected with tomato fluorescent protein (TFP) using a Helios Gene Gun (BioRad, Hercules, Calif.), according to the manufacturer's protocol, to visualize dendritic arbors. Following a 24 hour recovery period slices were stimulated with 1 pM Nle1-AngIV or Dihexa for 2 days. […] Hippocampal CA1 neuronal processes were imaged and measured as described above.
Hippocampi from P4 Sprague Dawley rats were cultured as previously described (Wayman, Impey et al. 2006). […] Hippocampal CA1 neuronal processes were imaged and measured as described above.

6-OHDA lesioned rats = test: 6-OHDA lesioned rat: rope hang, gait analysis, histology; assay type: in vivo
Procedure: Three groups of rats (8 animals per group) were utilized. The first two groups were prepared with unilateral 6-OHDA lesions and members of the first group was treated with MM-201 in DMSO 100 μl:PBS 8 ml ([…]) Members of Group 2 were treated with sterile DMSO 100 μl:PBS 8 ml equivalent volumes to the weights. Members of Group 3 had only a sham surgery and served as the non-treated controls. These three groups of animals were tested on behavioral tasks the day prior to surgery and on 13 days following surgery. The tasks included rope hang, and gait analysis.
The rope hang test involved the placement of the forepaws on a hemp rope (1.0 cm in dia.) located 1 m above a basket of towels. Hang time was recorded beginning when the experimenter let go of the animal. This test was repeated 3 times/animal/test (5 minutes rest between each test) every other day.
Step gait analyses were conducted in a dark room painted black under red light. The bottoms of each rat's feet were painted with black ink (Parker Quink) and the rat was placed in a Plexiglas straight maze (length×width×height: 116×7.6×10 cm). The maze was slightly elevated at one end such that the animal's tendency was to walk up hill. White paper strips placed on the floor of the maze were used to collect the gait patterns. These ink tracks were analyzed for stride length (distance between the mid point of the fore paw and hind paw comparing left and right strides).

hippocampal neurons = test: Spine head width in mRFP-β-actin transfected hippocampal neurons; assay type: cell-based, rat; details: 10^−12 M, 5 days
Description: Neurons were transfected with mRFP-β-actin on day in vitro 6 […] using LipofectAMINE™ 2000 (Invitrogen) according to the manufacturer's protocol. This protocol yielded the desired 3-5% transfection efficiency thus enabling the visualization of individual neurons. Higher efficiencies obscured the dendritic arbor of individual neurons. Expression of fluorescently tagged actin allowed clear visualization of dendritic spines, as dendritic spines are enriched in actin. On DIV7 the cells were treated with vehicle (H2O) or peptides (as described in the text) added to media. […] Slides were dried for at least 20 hours at 4° C. and fluorescent images were obtained with Slidebook 4.2 Digital Microscopy Software driving an Olympus IX81 inverted confocal microscope with a 60× oil immersion lens, NA 1.4 and resolution 0.280 μm Dendritic spine density was measured on primary and secondary dendrites at a distance of at least 150 μm from the soma. Five 50 μm long segments of dendrite from at least 10 neurons per data point were analyzed for each data point reported. […] Dendrite length was determined using the National Institutes of Health's Image J 1.41o program (NIH, Bethesda, Md.) and the neurite tracing program Neuron J (Meijering, Jacob et al. 2004) Spines were manually counted. […]

T1 sequence (P14210 32-728): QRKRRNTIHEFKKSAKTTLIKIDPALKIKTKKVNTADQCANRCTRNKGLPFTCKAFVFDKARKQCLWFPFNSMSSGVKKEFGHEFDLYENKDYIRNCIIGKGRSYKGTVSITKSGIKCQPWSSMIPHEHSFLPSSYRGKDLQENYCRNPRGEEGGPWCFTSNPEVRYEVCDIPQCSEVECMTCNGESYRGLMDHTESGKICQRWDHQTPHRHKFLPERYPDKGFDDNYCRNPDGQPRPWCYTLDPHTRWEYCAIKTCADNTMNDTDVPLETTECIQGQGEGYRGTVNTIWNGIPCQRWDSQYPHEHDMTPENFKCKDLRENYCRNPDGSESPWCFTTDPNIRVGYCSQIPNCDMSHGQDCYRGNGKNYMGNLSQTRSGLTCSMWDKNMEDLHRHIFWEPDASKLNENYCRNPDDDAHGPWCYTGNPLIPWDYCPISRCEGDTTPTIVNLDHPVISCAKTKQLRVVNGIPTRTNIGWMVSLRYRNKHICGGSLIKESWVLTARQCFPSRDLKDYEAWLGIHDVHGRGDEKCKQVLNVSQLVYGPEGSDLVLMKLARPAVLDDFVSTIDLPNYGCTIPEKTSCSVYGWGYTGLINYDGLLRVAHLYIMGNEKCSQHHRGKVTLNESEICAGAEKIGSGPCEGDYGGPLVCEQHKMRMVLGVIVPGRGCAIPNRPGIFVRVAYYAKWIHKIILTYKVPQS

## CCCCCC(=O)N[C@@H](Cc1ccc(O)cc1)C(=O)N[C@H](C(=O)NCCCCCC(N)=O)[C@@H](C)CC [Dihexa, N-hexanoic-Tyr-Ile-(6)-aminohexanoic amide] (Hexanoyl-Tyr-Ile-[Ahx]-NH2)
Human HGF
  HGF dimerization in the presence of Dihexa: blocking HGF dimerization; also recorded: blocks HGF dimerization
CA1 hippocampal neurons
  spines per 50 μm dendrite length in CA1 hippocampal neurons: 11 spines per 50 μm dendrite length
6-OHDA lesioned rats; 0.5 mg/kg ip, started 2 weeks after 6-OHDA lesion
  performance in the rope hang test: completely restores performance in the rope hang test; also recorded: completely restored the performance
6-OHDA lesioned rats; 2 mg/kg by oral gavage/48 hrs
  motor deficits in the 6-OHDA rat: reverses motor deficits
6-OHDA lesioned rats; 6-OHDA lesioned rats
  gait analysis: confirmed the recovery of normal motor function
6-OHDA lesioned rats; 96 day studies
  overt toxicity: no overt toxicity was noted
6-OHDA lesioned rats; six weeks of ip Dihexa treatment
  tyrosine hydroxylase (TH) staining in the substantia nigra: dramatic restoration of tyrosine hydroxylase (TH) staining
6-OHDA lesioned rats; three months of Dihexa treatment
  recovery of SN TH staining: ~100%
Hippocampal neurons
  spine head width: 0.80 μm
